We go through one compound from patent publication US8709449B2, “Methods and compositions for improving photodynamic therapy through administration of lipids” (Biolitec Pharma Marketing Ltd, priority 2004, dated 2014).

Data set [1] in a line: mTHPC concentration in tumor, skin and plasma of mice after injection (Trial 1 mTHPC, Trial 2 LMF). In kind it is in vivo, mouse. The procedure: FIG. 1—Graph showing meta-tetra(hydroxyphenyl)chlorin (“mTHPC”) concentration in tumor, skin and blood of a mouse after a dose of 10 μg mTHPC.
FIG. 2—Graph showing mTHPC concentration in tumor, skin and blood of a mouse after a dose of 5 μg mTHPC solubilized in Lipofundin MCT 10% (“LMF”).
This formulation is abbreviated “LMF”.

A short description of data set [2]: Skin fluorescence in a dog after simultaneous injection of mTHPC and Lipofundin. It is filed as in vivo. To be noted: mTHPC diluted in Lipofundin to 0.75 mg/ml, simultaneous bolus injection. As for the experimental part: FIG. 4—Graph of results of skin fluorescence in sarcoma and skin of a dog after simultaneous injection of mTHPC and Lipofundin.
In this example, a standard mTHPC solution, having 4 mg of mTHPC per ml of solution (4 mg/ml), was diluted in Lipofundin until the concentration of mTHPC in the mixture is 0.75 mg/ml. The mixture was then injected, thus both the photosensitizer and phospholipids were simultaneously injected. […] As is shown in FIG. 4, after only 6 hours, the fluorescence of the skin was substantially the same as that measured prior to injection, thus the skin was no longer photosensitive after this short amount of time.

Data set [3] can be described thus: Clinical monitoring of Foscan skin fluorescence by OBS in patients with basal-cell cancer after Foscan PDT. In kind it is in vivo, human. To be noted: ten patients. The procedure: Ten patients (6 male, 4 female) with basal-cell cancer (BCC) of the skin were treated with Foscan PDT course having a drug dose of 0.05 mg/kg, a drug-light interval 48 hours, and a 50 J/cm^2 light dose. Immediately after the laser treatment these patients were given intravenous drop infusions of 10% Lipofundin (250 ml). Patients were administered a second infusion of 10% Lipofundin solution (250 ml) the next day.
A group of ten patients (6 male, 4 female) with BCC of the skin, were administered Foscan PDT course having a drug dose of 0.05 mg/kg, a drug-light interval 48 hours, and a 50 J/cm^2 light dose. No 10% Lipofundin infusions were administered post-irradiation.
A computer-based spectrometer Optical Biopsy System (OBS) specially tuned for clinical monitoring of skin fluorescence was used to detect and measure skin fluorescence. The OBS uses a 400 nm diode laser to induce FOSCAN fluorescence (wavelength 655 nm) which is then detected and measured by the OBS spectrometer.
Fluorescence measurements were performed in intact skin of the cheek at certain time points after Foscan injection. Fluorescence monitoring began 2 days after Foscan administration and was continued for 7 weeks following Foscan administration. All measurements were performed by using contact tip (FD-1 Handstuck). Each fluorescence measurement was performed 4 times, all results were recorded, and the average value was used for further analysis.

In the case of `Oc1cccc(-c2c3nc(c(-c4cccc(O)c4)c4ccc([nH]4)c(-c4cccc(O)c4)c4nc(c(-c5cccc(O)c5)c5ccc2[nH]5)CC4)C=C3)c1` [mTHPC, meta-tetra(hydroxyphenyl)chlorin], the “time of peak tumor concentration of mTHPC” value in data set [1] (Trial 1: mTHPC 10 μg per mouse, Trial 2: LMF, 5 μg mTHPC per mouse solubilized in Lipofundin) stood at 24 h. The “skin concentration in Trial 1 relative to skin concentration after LMF injection” value in data set [1] (after 24 hours, Trial 1 dose twice that of Trial 2) is reported as “almost four times”. Besides, the “tumor concentration in Trial 1 after 12 hours relative to peak tumor concentration in Trial 2” value in data set [1] (mTHPC 10 μg per mouse, 12 hours, versus LMF peak) is listed as “⅔”. Further, the concentration at 24 h in data set [1] (skin, other: injection (site not specified), Trial 1, mTHPC 10 μg per mouse, after 24 hours) was roughly 260 ng/g. In addition, in data set [2], the “skin fluorescence after injection” value was “rapid decrease in skin fluorescence”. The “time after which skin fluorescence was substantially the same as prior to injection” value in data set [2] was 6 h. The “Number of patients exhibiting no detectable skin fluorescence as detected by OBS” value in data set [3] (7 days after Foscan application, Control Group: Foscan 0.05 mg/kg PDT, no Lipofundin infusions) stood at 0; in data set [3] (7 days after Foscan application, Experimental Group: Foscan 0.05 mg/kg PDT plus two 250 ml 10% Lipofundin infusions after irradiation) it was 0; in data set [3] (14 days after Foscan application, Control Group: Foscan 0.05 mg/kg PDT, no Lipofundin infusions), 0; in data set [3] (14 days after Foscan application, Experimental Group: Foscan 0.05 mg/kg PDT plus two 250 ml 10% Lipofundin infusions after irradiation) it was 2; in data set [3] (21 days after Foscan application, Control Group: Foscan 0.05 mg/kg PDT, no Lipofundin infusions) it was 2; in data set [3] (21 days after Foscan application, Experimental Group: Foscan 0.05 mg/kg PDT plus two 250 ml 10% Lipofundin infusions after irradiation), 5. The “Number of patients exhibiting no detectable skin fluorescence as detected by OBS” value in data set [3] (28 days after Foscan application, Control Group: Foscan 0.05 mg/kg PDT, no Lipofundin infusions) is reported as 7; in data set [3] (28 days after Foscan application, Experimental Group: Foscan 0.05 mg/kg PDT plus two 250 ml 10% Lipofundin infusions after irradiation) it was 10; in data set [3] (35 days after Foscan application, Control Group: Foscan 0.05 mg/kg PDT, no Lipofundin infusions) it was 10; in data set [3] (35 days after Foscan application, Experimental Group: Foscan 0.05 mg/kg PDT plus two 250 ml 10% Lipofundin infusions after irradiation), 10.
